The results in this text go back to ChEMBL document CHEMBL3351580, “Pyrano-isochromanones as IL-6 inhibitors: synthesis, in vitro and in vivo antiarthritic activity” (J Med Chem, 2014).

Data set [1] deals with THP-1. Put plainly: Inhibition of LPS-induced IL6 production in human THP1 cells after 24 hrs. The class given is functional, cell-based. Particulars: THP-1, 24 h.
Data set [2] concerns THP-1. Briefly: Inhibition of LPS-induced IL-1beta production in human THP1 cells at 10 uM after 24 hrs. Format: functional. Particulars: THP-1, 24 h.
In data set [3] the test system is THP-1. Briefly: Cytotoxicity against human THP1 cells after 48 hrs by MTT assay. The class given is cell-based. Particulars: THP-1, 48 h. In general terms: Formazan colour is commonly taken as a measure of viable cells.
Data set [4] concerns Mus musculus. Put plainly: Antiinflammatory activity in BALB/c mouse assessed as serum nitric oxide level at 100 mg/kg, po qd for 5 days followed by LPS challenge 1 hr after last compound dose on fifth day and measured 4 hrs post LPS challenge by Griess assay (reference value: 6.95 +/- 1.81 uM). The class given is functional.
Data set [5] concerns Mus musculus. Briefly: Antiarthritic activity in DBA/1J mouse collagen-induced arthritis model assessed as reduction in TNFalpha level at 3 to 30 mg/kg, po administered once daily for 49 days starting from onset of disease and measured after 3 to 49 days of disease onset by ELISA method. Format: functional, organism-based. (In general: ELISA stands for enzyme-linked immunosorbent assay.)

For another data set, the target named is CYP3A4 (Homo sapiens, UniProt P08684). Briefly: Inhibition of CYP3A4 (unknown origin) at 10 uM. Format: ADME.
A further data set deals with Cytochrome P450 2D6 (Homo sapiens, UniProt P10635). Briefly: Activation of CYP2D6 (unknown origin) assessed as increase in enzyme activity at 10 uM. The class given is ADME.
A further data set deals with T1, Cytochrome P450 1A2 (Homo sapiens, UniProt P05177).
T1 sequence (P05177 whole entry): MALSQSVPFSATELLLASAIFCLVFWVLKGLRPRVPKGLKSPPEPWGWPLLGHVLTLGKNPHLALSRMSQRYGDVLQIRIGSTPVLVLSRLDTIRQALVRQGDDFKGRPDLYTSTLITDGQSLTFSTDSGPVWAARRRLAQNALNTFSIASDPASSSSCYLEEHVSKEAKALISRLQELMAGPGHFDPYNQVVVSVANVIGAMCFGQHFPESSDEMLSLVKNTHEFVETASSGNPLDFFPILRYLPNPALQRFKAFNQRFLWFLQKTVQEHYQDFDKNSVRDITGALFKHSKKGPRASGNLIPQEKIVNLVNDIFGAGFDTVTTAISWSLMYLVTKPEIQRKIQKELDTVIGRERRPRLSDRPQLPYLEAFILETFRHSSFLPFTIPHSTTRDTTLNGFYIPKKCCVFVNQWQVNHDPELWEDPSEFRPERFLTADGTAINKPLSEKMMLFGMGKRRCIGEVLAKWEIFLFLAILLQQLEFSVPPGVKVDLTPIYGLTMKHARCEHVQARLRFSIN
Briefly: Activation of CYP1A2 (unknown origin) assessed as increase in enzyme activity at 10 uM. Format: ADME.

A short description of data set [6]: Apparent permeability from basolateral to apical side in human Caco2 cells. Particulars: Caco-2. Format: ADME, cell-based.

Active and inactive are the calls of the source. The calls are words filed in the database; no cut-off is given here.

Chain of Cytochrome P450 2D6 (P10635 whole entry): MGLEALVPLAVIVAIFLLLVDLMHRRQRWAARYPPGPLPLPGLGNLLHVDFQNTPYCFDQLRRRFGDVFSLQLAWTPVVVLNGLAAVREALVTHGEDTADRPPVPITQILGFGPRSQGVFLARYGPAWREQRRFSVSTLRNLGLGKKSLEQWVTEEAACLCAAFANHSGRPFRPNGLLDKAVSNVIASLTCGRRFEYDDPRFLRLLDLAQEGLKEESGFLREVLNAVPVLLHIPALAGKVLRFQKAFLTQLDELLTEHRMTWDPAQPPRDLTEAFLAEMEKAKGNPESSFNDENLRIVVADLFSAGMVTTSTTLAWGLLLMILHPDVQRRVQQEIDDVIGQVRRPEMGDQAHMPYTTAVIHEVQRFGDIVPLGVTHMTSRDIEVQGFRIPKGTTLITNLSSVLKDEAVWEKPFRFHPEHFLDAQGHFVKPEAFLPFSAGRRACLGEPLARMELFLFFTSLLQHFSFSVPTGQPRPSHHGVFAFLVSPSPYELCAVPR
Chain of CYP3A4 (P08684 whole entry): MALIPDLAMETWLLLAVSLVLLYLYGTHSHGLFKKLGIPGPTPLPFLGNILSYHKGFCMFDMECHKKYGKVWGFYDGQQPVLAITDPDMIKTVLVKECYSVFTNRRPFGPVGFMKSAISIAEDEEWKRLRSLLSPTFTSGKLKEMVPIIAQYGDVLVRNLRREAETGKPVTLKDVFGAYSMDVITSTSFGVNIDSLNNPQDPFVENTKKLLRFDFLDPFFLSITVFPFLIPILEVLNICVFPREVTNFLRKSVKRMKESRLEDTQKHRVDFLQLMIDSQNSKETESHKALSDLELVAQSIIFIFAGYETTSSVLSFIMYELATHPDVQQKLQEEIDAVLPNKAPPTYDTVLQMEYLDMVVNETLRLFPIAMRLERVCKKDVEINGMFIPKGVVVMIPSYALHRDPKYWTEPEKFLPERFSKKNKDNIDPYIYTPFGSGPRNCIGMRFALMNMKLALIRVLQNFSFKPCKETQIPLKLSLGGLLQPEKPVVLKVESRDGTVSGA

On to `CCN(CC)Cc1c(O)c(OC)c(O)c2c1C(=O)O[C@@H]1[C@@H](O)[C@H](O)[C@@H](CO)O[C@@H]21`, for which the IC50 amounted to 0.166 µM in the data set on THP-1 [1] and 77 µM in the data set with THP-1 [3]. The inhibition at 10 µM in the data set on THP-1 [2] came to 41%; against CYP3A4, 15%. The Activity in the data set on Mus musculus [4] is 3 µM; at Cytochrome P450 2D6, 36%; at Cytochrome P450 1A2, 10%. In the data set with Mus musculus [5], the inhibition result is “Active”. In addition, the Papp B→A in data set [6] was 1.59 ×10⁻⁶ cm/s.

A word on the IC50: it is the point on the concentration scale where inhibition reaches its midpoint. Low values mean higher potency, high ones lower potency. What is called inhibition is the change of the read-out against control, counted positive when it falls. By Papp B→A is commonly meant the apparent permeability from the basolateral to the apical side of a cell layer.
